According to publication PMC8533089, “Characteristics of Neurokinin-3 Receptor and Its Binding Sites by Mutational Analysis” (Biology, 2021):
Entries after “also recorded” stand apart in the source; their conditions may differ.

Columns and labels:
[1] = tested on: LH plasma levels; assay: In vivo effect of NKB antagonists on LH plasma levels (ELISA); set-up: species or system adult male tilapia (Oreochromis niloticus)
Protocol: The levels of FSH, LH and GH in the plasma were measured by specific competitive enzyme-linked immunosorbent assay (ELISA), developed for tilapia, based on recombinant gonadotropins or GH that were created by using the yeast Pichia pastoris. For the ELISAs, we used primary antibody antisera against GH [51], FSHβ [52], or against rtLHβ [53], and rtFSHβα [52], rtLHβ [53] or tiGH for the standard curves. Sensitivity for the plasma measurements were 15.84 pg/mL for LH, 0.24 pg/mL for FSH and 30.0 pg/mL for GH. The inter-assay coefficient of variation (CV) was 14.8, 12.5, and 13.0%, while intra-assay CV was 7.2, 8.0, and 8.0% for LH, FSH and GH, respectively.
Adult male tilapia (BW 89.29 ± 32.93 g; gonado-somatic index (GSI) 0.24% ± 0.40%) were injected IP (intraperitoneal) with NKB antagonists, SB-222200 or Osanetant (100 µg/kg BW), and after 0.5 h, a second injection of sGnRHa (10 µg/kg BW) was added. Control groups were injected with sGnRHa ([DAla^6, Pro^9-Net]-mammalian GnRH; Bachem, Budendorf, Switzerland) 10 µg/kg BW) as a positive control. The fish were bled from the caudal blood vessels into heparinized syringes 0, 0.5, 2, 6 and 24 h after injection. This time course is according to standard protocols used previously to test the effect of GnRH on circulating levels of LH, FSH, and GH in tilapia. Blood samples were collected from the caudal vasculature and centrifuged (3200 rpm for 30 min at 4 °C) (Centrifuge: Fresco 17, Rotor: 75003424, Thermo Scientific™, Langenselbold Germany) to obtain plasma samples, which were stored at −20 °C until assayed. Three independent experiments were carried out for the in-vivo studies.

[2] = tested on: milt volume; assay: 14-day in vivo experiment: milt volume / sperm production; set-up: species or system adult male tilapia (Oreochromis niloticus); conditions: 500 µg/kg BW IP every 48 h; days 7 and 14; six fish per group; versus control
Protocol: (§1) Adult male tilapia (BW 87.29 ± 26.1 g; gonado-somatic index (GSI 0.21% ± 0.36%) were IP injected with SB-222200 (500 µg/kg BW in 25% DMSO) and saline with 25% DMSO as a control every 48 h during a 14-day period. Blood was sampled every 48 h. Milt volume was collected from 6 fish from each group 7 and 14 days after the first injection, generally according to [55].

[3] = tested on: 11-KT plasma levels; assay: 14-day in vivo experiment: plasma 11-KT (ELISA); set-up: species or system adult male tilapia (Oreochromis niloticus); conditions: 500 µg/kg BW IP every 48 h, 14 days; n = 6
Protocol: as §1
11-KT levels were determined by ELISA, according to [52], using acetylcholine-esterase as a label. The anti- 11-KT was donated by Dr. D.E. Kime (Sheffield, UK). All samples were analyzed in duplicate, and for each ELISA plate, a separate standard curve was run. The lower limits of detection were 0.93 for 11-KT. The intra- and inter-assay coefficients of variance were less than 7%. Steroid levels in the plasma, determined by ELISA, were validated by verifying that serial dilutions were parallel to the standard curve.

[4] = tested on: LH secretion; conditions: OVX ewes, micro-implants in the ARC; cited from earlier work
Text: The effect of NKB/NKF peptides on gonadotropin secretion in fish is already well established. The first indication that NKB is widely expressed in fish species and has a stimulatory reproductive effect was shown in zebrafish, goldfish, and tilapia. […] Osetanant re ...

CC[C@H](NC(=O)c1c(C)c(-c2ccccc2)nc2ccccc12)c1ccccc1 [SB-222200]
LH plasma levels ([1]; 100 µg/kg BW IP, 2 h after injection, versus sGnRHa, n = 10): significantly lower
LH levels in plasma, sole IP injection ([1]; Discussion): decrease in the LH levels in plasma
LH release, combination with sGnRHa ([1]; antagonist 100 µg/kg BW IP, then sGnRHa 10 µg/kg BW after 0.5 h, n = 10): inhibitory effect on LH release, without any significant change when compared to the sGnRHa; also recorded: drop in LH release
LH plasma levels (abstract) ([1]; two hours post intraperitoneal injection): decreased LH plasma levels
sperm production (milt volume) [2]: retained a low sperm production after 7 and 14 days compared to that of the control group
11-KT plasma levels [3]: significantly delayed the rise of 11-KT levels in plasma
LH secretion [4]: disrupted LH secretion
